Earlier results on one compound are cited in US20220031715A1, “COMPOSITIONS AND METHODS FOR ENHANCING WOUND HEALING” (priority 2018, published 2022).

Data set [1] deals with NR1I2/PAR, NR1i2/PXR, ESR1, NFE2L2/HEBP1, NR1 L3/CAR, and TSHR. As to conditions: at least six receptors.

Turning to `O=P(Oc1ccccc1)(Oc1ccccc1)Oc1ccccc1` [TPP, triphenyl phosphate], the “activation of hormone receptors” value in data set [1] is reported as “activates”. For the same compound, the toxicity result with mammals is reported as “very low toxicity”.
